Test results from PMC5736175, “Nicotinic alpha 7 receptor agonists EVP-6124 and BMS-933043, attenuate scopolamine-induced deficits in visuo-spatial paired associates learning” (PLoS ONE, 2017).
Where “and” joins values, the source holds several entries; their conditions need not be identical. Equal values may be shown once. Entries after “also recorded” stand apart in the source; their conditions may differ. Where a name gives a salt, the structure may show the parent alone.

Tested on: scopolamine-treated cynomolgus monkeys
Test: Scopolamine-induced impairment of vsPAL task performance, treatment + scopolamine
Format: in vivo, cynomolgus monkeys (Macaca Fasicularis)
Protocol: Doses cited refer to the free base form of the compounds. […] All drugs were administered intramuscularly (i.m.) in a dosing volume of 0.1–0.2 ml/kg.
On days when compound testing occurred, approximately half the cohort received one dose and the remainder another dose of the same compound and therefore dose order was staggered between animals. With the exception of EVP-6124, all other compounds were tested in a single dose response study.
Cohen’s d values of >0.2, >0.5 and >0.8 are described using the conventions of small, medium, and large effects, respectively.

[1] = 0.3 mg/kg + scopolamine vs vehicle+scopolamine, eventual accuracy, 4-stimuli
[2] = Donepezil 0.03 mg/kg + Scopolamine, group MEAN of 6 animals
[3] = Donepezil 0.03 mg/kg + Scopolamine, individual animals
[4] = Donepezil 0.1 mg/kg + Scopolamine, group MEAN of 6 animals
[5] = Donepezil 0.1 mg/kg + Scopolamine, individual animals
[6] = Donepezil 0.3 mg/kg + Scopolamine, group MEAN (one animal without value)
[7] = Donepezil 0.3 mg/kg + Scopolamine, group MEAN of 6 animals
[8] = Donepezil 0.3 mg/kg + Scopolamine, individual animals
[9] = all doses of the study, for EVP-6124 study (1)
[10] = compound 0.03 mg/kg i.m. + Scopolamine
[11] = compound 0.10 mg/kg i.m. + Scopolamine
[12] = compound 0.30 mg/kg i.m. + Scopolamine

COc1cc2c(cc1OC)C(=O)C(CC1CCN(Cc3ccccc3)CC1)C2 (centres unmarked) [Donepezil, Donepezil hydrochloride]
Cohen's d [1]: 1.2 and 1.199
effect r [1]: 0.514
effect on scopolamine-induced impairment of eventual accuracy (0.3 mg/kg i.m., 4-stimuli condition): significantly ameliorated; also recorded: significantly reversed
mean (cohen's d calculations) (0.3 mpk + scop, eventual correct, 4-stimuli condition): 68.7
% Completion [2]: 79.4%
Average Response Latency [2]: 2339.5 ms
Eventual Correct, 2 Stimuli [2]: 100.0%
Eventual Correct, 3 Stimuli [2]: 86.7%
Eventual Correct, 4 Stimuli [2]: 42.1%
Eventual Correct, Overall Mean % Correct [2]: 76.2%
Initial Correct, 3 Stimuli [2]: 58.3%
Initial Correct, 4 Stimuli [2]: 16.7%
Initial Correct, Overall Mean % Correct [2]: 52.2%
Initial correct, 2 Stimuli [2]: 81.7%
% Completion [3]: 76.8% and 57.3% and 85.4% and 84.6% and 100.0% and 72.4%
Average Response Latency [3]: 2796.9 ms and 1893.7 ms and 2469.8 ms and 2357.9 ms and 2353.0 ms
Eventual Correct, 2 Stimuli [3]: 100.0%
Eventual Correct, 3 Stimuli [3]: 90.0% and 80.0% and 50.0% and 100.0%
Eventual Correct, 4 Stimuli [3]: 30.0% and 12.5% and 0.0% and 80.0% and 70.0% and 60.0%
Eventual Correct, Overall Mean % Correct [3]: 73.3% and 64.2% and 50.0% and 93.3% and 90.0% and 86.7%
Initial Correct, 3 Stimuli [3]: 50.0% and 70.0% and 40.0% and 60.0% and 90.0%
Initial Correct, 4 Stimuli [3]: 10.0% and 0.0% and 30.0%
Initial Correct, Overall Mean % Correct [3]: 50.0% and 56.7% and 36.7% and 46.7% and 73.3%
Initial correct, 2 Stimuli [3]: 90.0% and 100.0% and 70.0% and 60.0%
% Completion [4]: 80.6%
Average Response Latency [4]: 2361.5 ms
Eventual Correct, 2 Stimuli [4]: 98.3%
Eventual Correct, 3 Stimuli [4]: 90.0%
Eventual Correct, 4 Stimuli [4]: 50.0%
Eventual Correct, Overall Mean % Correct [4]: 79.4%
Initial Correct, 3 Stimuli [4]: 63.3%
Initial Correct, 4 Stimuli [4]: 30.0%
Initial Correct, Overall Mean % Correct [4]: 57.2%
Initial correct, 2 Stimuli [4]: 78.3%
% Completion [5]: 70.7% and 75.0% and 77.6% and 100.0% and 96.4% and 63.8%
Average Response Latency [5]: 2305.7 ms and 2751.0 ms and 1701.8 ms and 2272.3 ms and 2849.3 ms and 2289.1 ms
Eventual Correct, 2 Stimuli [5]: 90.0% and 100.0%
Eventual Correct, 3 Stimuli [5]: 60.0% and 90.0% and 100.0%
Eventual Correct, 4 Stimuli [5]: 0.0% and 90.0% and 50.0% and 60.0%
Eventual Correct, Overall Mean % Correct [5]: 50.0% and 93.3% and 80.0% and 83.3% and 86.7%
Initial Correct, 3 Stimuli [5]: 90.0% and 80.0% and 40.0% and 20.0% and 70.0%
Initial Correct, 4 Stimuli [5]: 50.0% and 30.0% and 0.0% and 40.0%
Initial Correct, Overall Mean % Correct [5]: 76.7% and 70.0% and 36.7% and 63.3% and 33.3%
Initial correct, 2 Stimuli [5]: 90.0% and 100.0% and 70.0% and 50.0%
Eventual Correct, 4 Stimuli [6]: 68.7%
Initial Correct, 4 Stimuli [6]: 28.2%
Average Response Latency [7]: 2371.0 ms
Eventual Correct, 2 Stimuli [7]: 98.3%
Eventual Correct, 3 Stimuli [7]: 85.0%
Eventual Correct, Overall Mean % Correct [7]: 84.9%
Initial Correct, 3 Stimuli [7]: 63.3%
Initial Correct, Overall Mean % Correct [7]: 58.4%
Initial correct, 2 Stimuli [7]: 80.0%
% Completion [8]: 41.3% and 69.1% and 98.4% and 98.6% and 98.3% and 61.0%
Average Response Latency [8]: 2379.3 ms and 1959.4 ms and 2184.7 ms and 2330.5 ms and 2840.5 ms and 2531.9 ms
Eventual Correct, 2 Stimuli [8]: 100.0% and 90.0%
Eventual Correct, 3 Stimuli [8]: 70.0% and 90.0% and 100.0%
Eventual Correct, 4 Stimuli [8]: 60.0% and 80.0% and 90.0% and 33.3%
Eventual Correct, Overall Mean % Correct [8]: 85.0% and 83.3% and 93.3% and 90.0% and 86.7% and 71.1%
Initial Correct, 3 Stimuli [8]: 50.0% and 80.0% and 70.0% and 60.0%
Initial Correct, 4 Stimuli [8]: 20.0% and 50.0% and 40.0% and 11.1%
Initial Correct, Overall Mean % Correct [8]: 50.0% and 66.7% and 53.3% and 63.3% and 50.4%
Initial correct, 2 Stimuli [8]: 50.0% and 100.0% and 80.0% and 90.0%
Holm-Sidak Post-Hoc, Treatment+Scopolamine differs from Vehicle+Scopolamine: percent correct on initial attempt, 3-stimuli (all doses of the study): n.s.
Holm-Sidak Post-Hoc, Treatment+Scopolamine differs from Vehicle+Scopolamine: Choice Response Latency [9]: n.s.
Holm-Sidak Post-Hoc, Treatment+Scopolamine differs from Vehicle+Scopolamine: Percent Task Completed [9]: n.s.
Holm-Sidak Post-Hoc, Treatment+Scopolamine differs from Vehicle+Scopolamine: percent correct on initial attempt, 2-stimuli [9]: n.s.
Holm-Sidak Post-Hoc, Treatment+Scopolamine differs from Vehicle+Scopolamine: percent correct on initial attempt, 4 stimuli [9]: n.s.
Percent Correct on Initial Attempt (SEM), 2 stimuli [10]: 81.7% (7.0%)
Percent Correct on Initial Attempt (SEM), 3 stimuli [10]: 58.3% (7.9%)
Percent Correct on Initial Attempt (SEM), 4 stimuli [10]: 16.7% (6.1%)
Percent Correct on Initial Attempt (SEM), 2 stimuli [11]: 78.3% (7.5%)
Percent Correct on Initial Attempt (SEM), 3 stimuli [11]: 63.3% (11.2%)
Percent Correct on Initial Attempt (SEM), 4 stimuli [11]: 30.0% (6.8%)
Percent Correct on Initial Attempt (SEM), 2 stimuli [12]: 80.0% (6.8%)
Percent Correct on Initial Attempt (SEM), 3 stimuli [12]: 63.3% (4.2%)
Percent Correct on Initial Attempt (SEM), 4 stimuli [12]: 28.2% (7.2%)
